# Test results: US20220389061A1, “IMMUNOMODULATORS” (priority 2019, published 2022)
# Like-named read-outs stand apart in the source and are kept apart here. Starred links: 1 amine or outer side, 2 acyl side, 3 side chain; linkers in the order of their positions; H or OH if unused. Positions of bridges follow the written chain, without caps; N, C: chain ends. Non-standard residues stand in square brackets, D forms with d. Residues, ends and D or L forms follow the SMILES beside them. Groups on a side chain read outwards from the residue. *: point of attachment. Trp(1-CH2COOH) = N[C@@H](Cc1cn(CC(=O)O)c2ccccc12)C(=O)O; X8 = NC(=O)c1c[nH]c2c(NC(=S)*)cccc12; NH(1-naphthyl) = c1ccc2c(N*)cccc2c1; Hyp = O=C(O)[C@@H]1C[C@@H](O)CN1; X14 = Cc1c[nH]c2c(NC(=S)*)cccc12; X25 = FC(F)(F)Oc1ccc(NC(=S)*)cc1; X94 = S=C(Nc1ccc(N2CCOCC2)nc1)*; X30 = FC(F)(F)c1ccc(N*)c(Cl)c1; X29 = c1ccc(Oc2ccc(N*)cc2)cc1; X42 = S=C(Nc1ccc2nccnc2c1Br)*; NMeNle = CCCC[C@H](NC)C(=O)O; X2 = c1ccc(-c2ccccc2N*)cc1; X59 = S=C(Nc1ccc2nsnc2c1)*; NMeA = CN[C@@H](C)C(=O)O; Dab = NCC[C@H](N)C(=O)O; Dap = NC[C@H](N)C(=O)O; CO = O=C([*:1])[*:2]
# Target: T1, PD-1/PD-L1 (Homo sapiens, UniProt Q9NZQ7)
# T1 construct: TVMV protease site linker (C); made in house; host or cells: HEK293T cells
# Assay: PD-1/PD-L1 Homogenous Time-Resolved Fluorescence (HTRF) binding assay
# Procedure, shortened: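 HTRF read-out using europium cryptate anti-Ig (1 nM) and APC anti-His (20 nM) on extracellular-domain fusion proteins in dPBS/0.1% BSA/0.05% Tween-20. Inhibitor first incubated 15 min with 10 nM PD-L1-His, followed by 20 nM PD-1-Ig for another 15 min.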
# [1] = PD-L1-His 10 nM pre-incubated with inhibitor, PD-1-Ig 20 nM, read-out: HTRF IC50
# T1 sequence (Q9NZQ7 18-239): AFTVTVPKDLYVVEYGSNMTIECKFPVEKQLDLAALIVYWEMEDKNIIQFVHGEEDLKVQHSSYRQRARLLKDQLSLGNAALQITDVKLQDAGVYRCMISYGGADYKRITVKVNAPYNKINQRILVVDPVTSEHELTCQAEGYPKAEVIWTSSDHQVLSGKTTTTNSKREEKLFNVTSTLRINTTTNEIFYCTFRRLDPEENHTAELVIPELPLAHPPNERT
Compound,IC50 [1] [nM],also measured
CCCC[C@H]1C(=O)N(C)[C@@H](CCCC)C(=O)N[C@@H](CC(C)C)C(=O)N[C@H](C(=O)NCC(N)=O)CSCC(=O)N[C@@H](Cc2ccc(O)cc2)C(=O)N(C)[C@@H](C)C(=O)N[C@@H](CC(N)=O)C(=O)N2CCC[C@H]2C(=O)N[C@@H](CNC(=O)Nc2cccc3ccccc23)C(=O)N[C@@H](CC(C)C)C(=O)N2C[C@H](O)C[C@H]2C(=O)N[C@@H](Cc2c[nH]c3ccccc23)C(=O)N[C@@H](CCNC(=O)Nc2cccc3ccccc23)C(=O)N[C@@H](Cc2cn(CC(=O)O)c3ccccc23)C(=O)N1C [Example 3005] ({CH2CO}-Y[NMeA]NP[Dap]([CO-NH(1-naphthyl)])L[Hyp]W[Dab]([CO-NH(1-naphthyl)])[Trp(1-CH2COOH)][NMeNle][NMeNle]LCG-NH2; thioether N-14),,IC50: 3.2 nM
CCCC[C@H]1C(=O)N(C)[C@@H](CCCC)C(=O)N[C@@H](CC(C)C)C(=O)N[C@H](C(=O)NCC(N)=O)CSCC(=O)N[C@@H](Cc2ccc(O)cc2)C(=O)N(C)[C@@H](C)C(=O)N[C@@H](CC(N)=O)C(=O)N2CCC[C@H]2C(=O)N[C@@H](CNC(=O)Nc2ccc(Oc3ccccc3)cc2)C(=O)N[C@@H](CC(C)C)C(=O)N2C[C@H](O)C[C@H]2C(=O)N[C@@H](Cc2c[nH]c3ccccc23)C(=O)N[C@@H](CCNC(=O)Nc2ccc(Oc3ccccc3)cc2)C(=O)N[C@@H](Cc2cn(CC(=O)O)c3ccccc23)C(=O)N1C [Example 1023] ({CH2CO}-Y[NMeA]NP[Dap]([CO-X29])L[Hyp]W[Dab]([CO-X29])[Trp(1-CH2COOH)][NMeNle][NMeNle]LCG-NH2; thioether N-14),32,
CCCC[C@H]1C(=O)N(C)[C@@H](CCCC)C(=O)N[C@@H](CC(C)C)C(=O)N[C@H](C(=O)NCC(N)=O)CSCC(=O)N[C@@H](Cc2ccc(O)cc2)C(=O)N(C)[C@@H](C)C(=O)N[C@@H](CC(N)=O)C(=O)N2CCC[C@H]2C(=O)N[C@@H](CNC(=S)Nc2ccc(OC(F)(F)F)cc2)C(=O)N[C@@H](CC(C)C)C(=O)N2C[C@H](O)C[C@H]2C(=O)N[C@@H](Cc2c[nH]c3ccccc23)C(=O)N[C@@H](CCNC(=S)Nc2ccc(OC(F)(F)F)cc2)C(=O)N[C@@H](Cc2cn(CC(=O)O)c3ccccc23)C(=O)N1C [Example 1010] ({CH2CO}-Y[NMeA]NP[Dap](X25)L[Hyp]W[Dab](X25)[Trp(1-CH2COOH)][NMeNle][NMeNle]LCG-NH2; thioether N-14),7.1,
CCCC[C@H]1C(=O)N(C)[C@@H](CCCC)C(=O)N[C@@H](CC(C)C)C(=O)N[C@H](C(=O)NCC(N)=O)CSCC(=O)N[C@@H](Cc2ccc(O)cc2)C(=O)N(C)[C@@H](C)C(=O)N[C@@H](CC(N)=O)C(=O)N2CCC[C@H]2C(=O)N[C@@H](CNC(=O)Nc2ccc(C(F)(F)F)cc2Cl)C(=O)N[C@@H](CC(C)C)C(=O)N2C[C@H](O)C[C@H]2C(=O)N[C@@H](Cc2c[nH]c3ccccc23)C(=O)N[C@@H](CCN)C(=O)N[C@@H](Cc2cn(CC(=O)O)c3ccccc23)C(=O)N1C [Example 1105] ({CH2CO}-Y[NMeA]NP[Dap]([CO-X30])L[Hyp]W[Dab][Trp(1-CH2COOH)][NMeNle][NMeNle]LCG-NH2; thioether N-14),26,
CCCC[C@H]1C(=O)N(C)[C@@H](CCCC)C(=O)N[C@@H](CC(C)C)C(=O)N[C@H](C(=O)NCC(N)=O)CSCC(=O)N[C@@H](Cc2ccc(O)cc2)C(=O)N(C)[C@@H](C)C(=O)N[C@@H](CC(N)=O)C(=O)N2CCC[C@H]2C(=O)N[C@@H](CNC(=S)Nc2cccc3c(C)c[nH]c23)C(=O)N[C@@H](CC(C)C)C(=O)N2C[C@H](O)C[C@H]2C(=O)N[C@@H](Cc2c[nH]c3ccccc23)C(=O)N[C@@H](CCNC(=S)Nc2cccc3c(C)c[nH]c23)C(=O)N[C@@H](Cc2cn(CC(=O)O)c3ccccc23)C(=O)N1C [Example 3025] ({CH2CO}-Y[NMeA]NP[Dap](X14)L[Hyp]W[Dab](X14)[Trp(1-CH2COOH)][NMeNle][NMeNle]LCG-NH2; thioether N-14),2.9,
CCCC[C@H]1C(=O)N(C)[C@@H](CCCC)C(=O)N[C@@H](CC(C)C)C(=O)N[C@H](C(=O)NCC(N)=O)CSCC(=O)N[C@@H](Cc2ccc(O)cc2)C(=O)N(C)[C@@H](C)C(=O)N[C@@H](CC(N)=O)C(=O)N2CCC[C@H]2C(=O)N[C@@H](CNC(=S)Nc2ccc3nccnc3c2Br)C(=O)N[C@@H](CC(C)C)C(=O)N2C[C@H](O)C[C@H]2C(=O)N[C@@H](Cc2c[nH]c3ccccc23)C(=O)N[C@@H](CCN)C(=O)N[C@@H](Cc2cn(CC(=O)O)c3ccccc23)C(=O)N1C [Example 3047] ({CH2CO}-Y[NMeA]NP[Dap](X42)L[Hyp]W[Dab][Trp(1-CH2COOH)][NMeNle][NMeNle]LCG-NH2; thioether N-14),5.8,
CCCC[C@H]1C(=O)N(C)[C@@H](CCCC)C(=O)N[C@@H](CC(C)C)C(=O)N[C@H](C(=O)NCC(N)=O)CSCC(=O)N[C@@H](Cc2ccc(O)cc2)C(=O)N(C)[C@@H](C)C(=O)N[C@@H](CC(N)=O)C(=O)N2CCC[C@H]2C(=O)N[C@@H](CNC(=S)Nc2cccc3c(C(N)=O)c[nH]c23)C(=O)N[C@@H](CC(C)C)C(=O)N2C[C@H](O)C[C@H]2C(=O)N[C@@H](Cc2c[nH]c3ccccc23)C(=O)N[C@@H](CCNC(=S)Nc2cccc3c(C(N)=O)c[nH]c23)C(=O)N[C@@H](Cc2cn(CC(=O)O)c3ccccc23)C(=O)N1C [Example 3023] ({CH2CO}-Y[NMeA]NP[Dap](X8)L[Hyp]W[Dab](X8)[Trp(1-CH2COOH)][NMeNle][NMeNle]LCG-NH2; thioether N-14),1.6,
CCCC[C@H]1C(=O)N(C)[C@@H](CCCC)C(=O)N[C@@H](CC(C)C)C(=O)N[C@H](C(=O)NCC(N)=O)CSCC(=O)N[C@@H](Cc2ccc(O)cc2)C(=O)N(C)[C@@H](C)C(=O)N[C@@H](CC(N)=O)C(=O)N2CCC[C@H]2C(=O)N[C@@H](CNC(=S)Nc2ccc(N3CCOCC3)nc2)C(=O)N[C@@H](CC(C)C)C(=O)N2C[C@H](O)C[C@H]2C(=O)N[C@@H](Cc2c[nH]c3ccccc23)C(=O)N[C@@H](CCN)C(=O)N[C@@H](Cc2cn(CC(=O)O)c3ccccc23)C(=O)N1C [Example 1058] ({CH2CO}-Y[NMeA]NP[Dap](X94)L[Hyp]W[Dab][Trp(1-CH2COOH)][NMeNle][NMeNle]LCG-NH2; thioether N-14),4,
CCCC[C@H]1C(=O)N(C)[C@@H](CCCC)C(=O)N[C@@H](CC(C)C)C(=O)N[C@H](C(=O)NCC(N)=O)CSCC(=O)N[C@@H](Cc2ccc(O)cc2)C(=O)N(C)[C@@H](C)C(=O)N[C@@H](CC(N)=O)C(=O)N2CCC[C@H]2C(=O)N[C@@H](CNC(=O)Nc2ccccc2-c2ccccc2)C(=O)N[C@@H](CC(C)C)C(=O)N2C[C@H](O)C[C@H]2C(=O)N[C@@H](Cc2c[nH]c3ccccc23)C(=O)N[C@@H](CCNC(=O)Nc2ccccc2-c2ccccc2)C(=O)N[C@@H](Cc2cn(CC(=O)O)c3ccccc23)C(=O)N1C [Example 1126] ({CH2CO}-Y[NMeA]NP[Dap]([CO-X2])L[Hyp]W[Dab]([CO-X2])[Trp(1-CH2COOH)][NMeNle][NMeNle]LCG-NH2; thioether N-14),,"IC50 (read-out: HTRF IC50, PD-L1-His 10 nM pre-incubated with inhibitor, PD-1-Ig 20 nM): 1 nM"
CCCC[C@H]1C(=O)N(C)[C@@H](CCCC)C(=O)N[C@@H](CC(C)C)C(=O)N[C@H](C(=O)NCC(N)=O)CSCC(=O)N[C@@H](Cc2ccc(O)cc2)C(=O)N(C)[C@@H](C)C(=O)N[C@@H](CC(N)=O)C(=O)N2CCC[C@H]2C(=O)N[C@@H](CNC(=S)Nc2ccc3nsnc3c2)C(=O)N[C@@H](CC(C)C)C(=O)N2C[C@H](O)C[C@H]2C(=O)N[C@@H](Cc2c[nH]c3ccccc23)C(=O)N[C@@H](CCN)C(=O)N[C@@H](Cc2cn(CC(=O)O)c3ccccc23)C(=O)N1C [Example 3030] ({CH2CO}-Y[NMeA]NP[Dap](X59)L[Hyp]W[Dab][Trp(1-CH2COOH)][NMeNle][NMeNle]LCG-NH2; thioether N-14),3,
